Source: ChEMBL document CHEMBL3585313, “Fragment-Based Discovery of a Small Molecule Inhibitor of Bruton's Tyrosine Kinase” (J Med Chem, 2015)
Values belong to the compound of their own block, whether it stands above or below them.

Assays:
[1] = biological target: Tyrosine-protein kinase Lck (Homo sapiens, UniProt P06239); assay: Inhibition of Lck (unknown origin)
[2] = Clearance in Sprague-Dawley rat at 1 mg/kg, iv; type: ADME, organism-based; conditions: in vivo
[3] = Volume of distribution at steady state in Sprague-Dawley rat at 1 mg/kg, iv and 4 mg/kg, po; type: ADME, organism-based; conditions: in vivo, read-out: Vdss
[4] = Half life in Sprague-Dawley rat at 1 mg/kg, iv and 4 mg/kg, po; type: ADME, organism-based; conditions: in vivo
[5] = Oral bioavailability in Sprague-Dawley rat at 4 mg/kg; type: ADME, organism-based; conditions: in vivo
[6] = biological target: Activin receptor type-1 (Homo sapiens, UniProt Q04771); assay: Inhibition of human recombinant ALK2 by LanthaScreen Binding assay
[7] = biological target: LIM domain kinase 1 (Homo sapiens, UniProt P53667); assay: Inhibition of human recombinant LIMK1 by LanthaScreen Binding assay
[8] = biological target: Activated CDC42 kinase 1 (Homo sapiens, UniProt Q07912); assay: Inhibition of human recombinant TNK2 by LanthaScreen Binding assay
[9] = test system: Rattus norvegicus; assay: Antiarthritic activity in po dosed bovine type-2 collagen-induced po dosed female Lewis rat arthritic model assessed as inhibition of paw volume administered as qd starting on day 12 continued through day 21; type: functional, organism-based
[10] = test system: Rattus norvegicus; assay: Antiarthritic activity in po dosed bovine type-2 collagen-induced po dosed female Lewis rat arthritic model assessed as increase in paw volume AUC (0 to 24 hrs) administered as qd starting on day 12 continued through day 21; type: functional, organism-based
[11] = Clearance in C57/bl6 mouse at 1 mg/kg, iv and 10 mg/kg, po; type: ADME, organism-based; conditions: in vivo
[12] = Volume of distribution at steady state in C57/bl6 mouse at 1 mg/kg, iv and 10 mg/kg, po; type: ADME, organism-based; conditions: in vivo, read-out: Vdss
[13] = Half life in C57/bl6 mouse at 1 mg/kg, iv and 10 mg/kg, po; type: ADME, organism-based; conditions: in vivo
[14] = Oral bioavailability in C57/bl6 mouse at 10 mg/kg; type: ADME, organism-based; conditions: in vivo
[15] = Clearance in beagle dog at 1 mg/kg, iv and 10 mg/kg, po; type: ADME, organism-based, Canis lupus familiaris; conditions: in vivo
[16] = Volume of distribution at steady state in beagle dog at 1 mg/kg, iv and 10 mg/kg, po; type: ADME, organism-based, Canis lupus familiaris; conditions: in vivo, read-out: Vdss
[17] = Half life in beagle dog at 1 mg/kg, iv and 10 mg/kg, po; type: ADME, organism-based, Canis lupus familiaris; conditions: in vivo
[18] = Oral bioavailability in beagle dog at 10 mg/kg; type: ADME, organism-based, Canis lupus familiaris; conditions: in vivo
[19] = biological target: T1, Tyrosine-protein kinase Blk (Homo sapiens, UniProt P51451); assay: Inhibition of human recombinant Blk at 1 uM
Target sequence in this assay (P51451 2-505 limits assumed): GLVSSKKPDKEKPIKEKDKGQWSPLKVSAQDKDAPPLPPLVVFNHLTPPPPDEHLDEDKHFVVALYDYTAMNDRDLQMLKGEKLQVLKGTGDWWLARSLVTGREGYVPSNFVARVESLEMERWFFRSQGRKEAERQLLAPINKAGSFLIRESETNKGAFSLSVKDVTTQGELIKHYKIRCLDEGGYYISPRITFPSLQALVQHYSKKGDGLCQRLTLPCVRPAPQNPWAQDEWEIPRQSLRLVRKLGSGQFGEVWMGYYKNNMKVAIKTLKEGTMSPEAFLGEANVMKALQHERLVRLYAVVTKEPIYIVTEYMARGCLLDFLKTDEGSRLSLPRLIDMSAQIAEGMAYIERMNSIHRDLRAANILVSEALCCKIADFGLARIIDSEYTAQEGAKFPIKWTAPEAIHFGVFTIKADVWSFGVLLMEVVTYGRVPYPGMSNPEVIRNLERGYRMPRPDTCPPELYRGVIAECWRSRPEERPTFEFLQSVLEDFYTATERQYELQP

[20] = biological target: Cytoplasmic tyrosine-protein kinase BMX (Homo sapiens) (UniProt P51813); assay: Inhibition of human recombinant Bmx at 1 uM
[21] = biological target: Tyrosine-protein kinase Tec (Homo sapiens) (UniProt P42680); assay: Inhibition of human recombinant Tec at 1 uM
[22] = biological target: T2, Tyrosine-protein kinase Fgr (Homo sapiens, UniProt P09769); assay: Inhibition of human recombinant Fgr at 1 uM
[23] = biological target: T3, Tyrosine-protein kinase FRK (Homo sapiens, UniProt P42685); assay: Inhibition of human recombinant Frk at 1 uM
T3 sequence (P42685 whole entry): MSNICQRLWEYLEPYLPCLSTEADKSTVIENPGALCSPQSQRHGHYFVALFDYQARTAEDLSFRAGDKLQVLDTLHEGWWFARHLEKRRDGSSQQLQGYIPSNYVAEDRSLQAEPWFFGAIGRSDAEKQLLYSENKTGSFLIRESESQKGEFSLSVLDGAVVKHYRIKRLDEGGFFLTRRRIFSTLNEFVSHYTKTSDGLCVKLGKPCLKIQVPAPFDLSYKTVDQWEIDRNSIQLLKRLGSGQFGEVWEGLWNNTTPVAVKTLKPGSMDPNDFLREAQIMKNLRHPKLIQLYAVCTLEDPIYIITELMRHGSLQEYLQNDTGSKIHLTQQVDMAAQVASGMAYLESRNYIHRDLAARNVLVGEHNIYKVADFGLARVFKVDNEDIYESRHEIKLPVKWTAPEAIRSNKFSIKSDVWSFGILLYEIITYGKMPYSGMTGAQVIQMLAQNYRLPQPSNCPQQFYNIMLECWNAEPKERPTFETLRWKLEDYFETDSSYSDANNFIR

[24] = biological target: Tyrosine-protein kinase Fyn (Homo sapiens) (UniProt P06241); assay: Inhibition of human recombinant Fyn at 1 uM
Sequence of Tyrosine-protein kinase Fyn (Homo sapiens) (P06241 2-537 limits assumed): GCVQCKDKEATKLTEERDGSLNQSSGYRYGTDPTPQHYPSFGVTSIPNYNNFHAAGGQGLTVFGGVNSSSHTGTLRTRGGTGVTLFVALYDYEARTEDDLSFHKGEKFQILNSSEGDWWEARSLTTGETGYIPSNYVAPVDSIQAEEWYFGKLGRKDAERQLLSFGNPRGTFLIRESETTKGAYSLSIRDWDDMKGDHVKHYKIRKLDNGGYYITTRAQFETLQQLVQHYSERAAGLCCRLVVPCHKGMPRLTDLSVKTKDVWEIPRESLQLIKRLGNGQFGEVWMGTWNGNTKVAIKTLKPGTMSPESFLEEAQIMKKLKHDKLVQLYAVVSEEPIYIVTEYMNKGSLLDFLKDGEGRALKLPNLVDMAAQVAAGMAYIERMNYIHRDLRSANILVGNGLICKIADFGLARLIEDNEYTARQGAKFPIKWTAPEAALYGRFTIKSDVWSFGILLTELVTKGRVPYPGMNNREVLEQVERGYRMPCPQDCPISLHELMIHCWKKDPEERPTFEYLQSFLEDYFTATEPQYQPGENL

[25] = biological target: T4, Tyrosine-protein kinase HCK (Homo sapiens, UniProt P08631); assay: Inhibition of human recombinant Hck at 1 uM
[26] = biological target: T5, Proto-oncogene tyrosine-protein kinase Src (Homo sapiens, UniProt P12931); assay: Inhibition of human recombinant Src at 1 uM
T5 sequence (P12931 2-536 limits assumed): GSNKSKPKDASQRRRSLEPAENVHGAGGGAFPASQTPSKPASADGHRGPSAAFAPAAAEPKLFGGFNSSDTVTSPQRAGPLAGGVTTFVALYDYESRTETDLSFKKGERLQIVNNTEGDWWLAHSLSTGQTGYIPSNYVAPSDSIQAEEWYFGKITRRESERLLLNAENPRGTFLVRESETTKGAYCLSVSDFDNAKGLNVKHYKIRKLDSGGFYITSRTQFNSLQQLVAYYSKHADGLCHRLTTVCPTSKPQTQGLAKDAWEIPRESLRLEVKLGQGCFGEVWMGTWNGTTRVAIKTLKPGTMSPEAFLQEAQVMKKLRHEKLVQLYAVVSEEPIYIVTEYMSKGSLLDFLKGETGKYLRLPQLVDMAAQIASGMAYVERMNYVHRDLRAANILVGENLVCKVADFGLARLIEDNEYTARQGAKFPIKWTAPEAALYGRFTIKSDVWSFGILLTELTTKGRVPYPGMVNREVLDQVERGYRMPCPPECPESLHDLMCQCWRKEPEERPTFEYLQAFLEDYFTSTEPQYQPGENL

[27] = biological target: Tyrosine-protein kinase Yes (Homo sapiens) (UniProt P07947); assay: Inhibition of human recombinant Yes at 1 uM
[28] = biological target: T1, Tyrosine-protein kinase Blk; assay: Inhibition of human recombinant Blk
[29] = biological target: Cytoplasmic tyrosine-protein kinase BMX (Homo sapiens, UniProt P51813); assay: Inhibition of human recombinant Bmx
[30] = biological target: Tyrosine-protein kinase Tec (Homo sapiens, UniProt P42680); assay: Inhibition of human recombinant Tec
[31] = biological target: T2, Tyrosine-protein kinase Fgr; assay: Inhibition of human recombinant Fgr
[32] = biological target: T3, Tyrosine-protein kinase FRK; assay: Inhibition of human recombinant Frk
[33] = biological target: T4, Tyrosine-protein kinase HCK; assay: Inhibition of human recombinant Hck
Target sequence in this assay (P08631 whole entry): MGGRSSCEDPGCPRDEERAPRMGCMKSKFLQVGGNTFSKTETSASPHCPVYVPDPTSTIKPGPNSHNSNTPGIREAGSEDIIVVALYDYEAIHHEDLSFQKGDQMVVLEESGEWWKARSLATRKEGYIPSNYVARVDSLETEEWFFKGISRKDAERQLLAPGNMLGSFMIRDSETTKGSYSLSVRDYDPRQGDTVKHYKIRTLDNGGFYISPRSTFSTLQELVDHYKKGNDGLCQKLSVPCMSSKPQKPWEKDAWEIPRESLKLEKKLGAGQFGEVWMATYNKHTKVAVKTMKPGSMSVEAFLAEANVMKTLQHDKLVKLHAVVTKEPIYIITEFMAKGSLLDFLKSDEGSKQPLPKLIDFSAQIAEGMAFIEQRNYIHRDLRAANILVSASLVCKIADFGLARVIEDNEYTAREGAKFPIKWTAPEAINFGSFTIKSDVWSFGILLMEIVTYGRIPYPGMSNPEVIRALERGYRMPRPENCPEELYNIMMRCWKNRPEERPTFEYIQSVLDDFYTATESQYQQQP

[34] = biological target: T6, Tyrosine-protein kinase Lyn (Homo sapiens, UniProt P07948); assay: Inhibition of human recombinant LynA
Target sequence in this assay (P07948 whole entry): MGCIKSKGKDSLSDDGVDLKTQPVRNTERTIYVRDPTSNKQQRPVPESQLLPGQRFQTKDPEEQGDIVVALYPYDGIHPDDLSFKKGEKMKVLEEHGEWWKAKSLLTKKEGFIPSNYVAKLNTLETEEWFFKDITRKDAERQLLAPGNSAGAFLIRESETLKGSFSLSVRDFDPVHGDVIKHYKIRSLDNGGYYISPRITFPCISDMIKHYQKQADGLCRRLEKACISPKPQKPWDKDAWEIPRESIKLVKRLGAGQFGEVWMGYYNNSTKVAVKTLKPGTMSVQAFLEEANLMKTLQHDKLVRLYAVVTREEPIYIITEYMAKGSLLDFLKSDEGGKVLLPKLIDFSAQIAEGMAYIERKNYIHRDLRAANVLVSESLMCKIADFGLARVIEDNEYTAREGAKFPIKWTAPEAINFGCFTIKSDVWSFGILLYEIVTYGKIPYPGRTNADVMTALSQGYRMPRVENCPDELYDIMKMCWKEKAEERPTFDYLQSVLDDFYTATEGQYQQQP

[35] = biological target: T6, Tyrosine-protein kinase Lyn; assay: Inhibition of human recombinant LynB
Target sequence in this assay (P07948 whole entry): as above

[36] = biological target: T5, Proto-oncogene tyrosine-protein kinase Src; assay: Inhibition of human recombinant Src
[37] = biological target: T6, Tyrosine-protein kinase Lyn; conditions: 1 uM
Target sequence in this assay (P07948 2-512 limits assumed): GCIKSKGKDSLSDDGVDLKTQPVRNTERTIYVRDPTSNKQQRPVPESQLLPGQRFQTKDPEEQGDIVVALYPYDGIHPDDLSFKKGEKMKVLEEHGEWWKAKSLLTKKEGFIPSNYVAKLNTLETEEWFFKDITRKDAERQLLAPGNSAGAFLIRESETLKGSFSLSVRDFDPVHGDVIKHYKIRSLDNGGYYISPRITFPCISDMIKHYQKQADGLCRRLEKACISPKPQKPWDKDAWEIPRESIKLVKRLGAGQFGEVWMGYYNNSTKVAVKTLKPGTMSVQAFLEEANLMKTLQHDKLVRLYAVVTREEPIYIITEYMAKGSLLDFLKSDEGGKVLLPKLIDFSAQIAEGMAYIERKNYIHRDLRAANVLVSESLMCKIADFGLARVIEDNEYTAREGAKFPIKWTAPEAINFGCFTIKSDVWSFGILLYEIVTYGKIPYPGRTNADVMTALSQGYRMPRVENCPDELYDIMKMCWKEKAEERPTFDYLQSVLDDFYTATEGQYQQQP
Description: Inhibition of human recombinant LynA at 1 uM

[38] = biological target: T6, Tyrosine-protein kinase Lyn; conditions: 1 uM; remark: listed apart in the source
Target sequence in this assay (P07948 2-512 limits assumed): as above
Description: Inhibition of human recombinant LynB at 1 uM

[39] = biological target: T7, Tyrosine-protein kinase BTK (Homo sapiens, UniProt Q06187); assay: Inhibition of BTK autophosphorylation in human Raji cells after 30 mins by Phos-Y223 Btk HTRF assay; type: cell-based
T7 sequence (Q06187 whole entry): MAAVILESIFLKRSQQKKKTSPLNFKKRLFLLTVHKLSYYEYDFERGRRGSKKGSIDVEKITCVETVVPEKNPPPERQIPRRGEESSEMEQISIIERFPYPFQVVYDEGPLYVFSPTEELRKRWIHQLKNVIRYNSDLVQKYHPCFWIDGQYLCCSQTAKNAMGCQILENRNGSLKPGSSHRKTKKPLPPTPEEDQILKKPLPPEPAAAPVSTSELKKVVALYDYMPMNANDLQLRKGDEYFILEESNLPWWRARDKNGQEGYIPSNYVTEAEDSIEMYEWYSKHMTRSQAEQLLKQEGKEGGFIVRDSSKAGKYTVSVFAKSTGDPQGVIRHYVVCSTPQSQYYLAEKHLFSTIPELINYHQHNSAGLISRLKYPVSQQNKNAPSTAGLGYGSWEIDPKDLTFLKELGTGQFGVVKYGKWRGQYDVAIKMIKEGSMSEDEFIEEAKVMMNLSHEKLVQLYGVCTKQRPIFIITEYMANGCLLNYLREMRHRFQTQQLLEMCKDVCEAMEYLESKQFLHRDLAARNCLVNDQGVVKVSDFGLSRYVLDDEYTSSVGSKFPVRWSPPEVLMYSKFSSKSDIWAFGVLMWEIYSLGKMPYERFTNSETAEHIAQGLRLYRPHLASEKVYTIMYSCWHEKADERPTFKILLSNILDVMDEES

[40] = Hepatic extraction ratio in human liver microsomes at 1 uM up to 30 mins by LC-MS/MS analysis; type: ADME; conditions: read-out: ERH
[41] = Hepatic extraction ratio in rat liver microsomes at 1 uM up to 30 mins by LC-MS/MS analysis; type: ADME; conditions: read-out: ERH
[42] = test system: MDR1; assay: Apparent permeability across apical to basolateral side in pig LLC-PK1 cells expressing MDR1; type: ADME, cell-based, Sus scrofa
[43] = test system: LLC-PK1; assay: Efflux ratio of apparent permeability across apical to basolateral side over basolateral to apical side in pig LLC-PK1 cells expressing MDR1; type: ADME, cell-based, Sus scrofa
[44] = Hepatic extraction ratio in Sprague-Dawley rat at 1 mg/kg, iv; type: ADME, organism-based; conditions: in vivo, read-out: ERH
[45] = biological target: T7, Tyrosine-protein kinase BTK
Description: Inhibition of BTK in human Raji cells after 30 mins by HTRF assay

Sequence of Tyrosine-protein kinase Lck (P06239 whole entry): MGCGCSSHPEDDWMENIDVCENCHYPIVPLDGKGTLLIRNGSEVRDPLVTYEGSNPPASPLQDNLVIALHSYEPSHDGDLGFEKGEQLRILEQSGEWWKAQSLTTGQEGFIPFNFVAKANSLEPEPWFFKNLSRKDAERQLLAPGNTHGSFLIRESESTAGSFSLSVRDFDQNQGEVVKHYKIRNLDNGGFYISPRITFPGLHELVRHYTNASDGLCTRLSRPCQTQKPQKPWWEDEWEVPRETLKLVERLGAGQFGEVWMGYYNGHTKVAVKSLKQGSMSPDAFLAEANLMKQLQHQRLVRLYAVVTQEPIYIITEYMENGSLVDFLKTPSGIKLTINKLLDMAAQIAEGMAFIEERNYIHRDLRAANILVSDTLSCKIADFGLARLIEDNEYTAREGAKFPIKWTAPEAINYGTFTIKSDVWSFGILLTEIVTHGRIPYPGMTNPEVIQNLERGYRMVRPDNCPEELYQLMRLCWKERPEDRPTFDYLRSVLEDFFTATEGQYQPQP

IC50 [1]: 1300 nM
SMILES: NC(=O)c1nnc2c(-c3ccc4cn[nH]c4c3)cccc2c1N

clearance [2]: 12 mL/min/kg
Vd [3]: 1.5 L/kg
half-life [4]: 1.6 h
bioavailability [5]: 70%
IC50 [6]: 7 nM
IC50 [7]: 12 nM
IC50 [8]: 11 nM
clearance [11]: 18 mL/min/kg
Vd [12]: 0.8 L/kg
half-life [13]: 1.6 h
bioavailability [14]: 93%
clearance [15]: 8.7 mL/min/kg
Vd [16]: 1.1 L/kg
half-life [17]: 4.1 h
bioavailability [18]: 89%
inhibition [19]: 89%
inhibition [20]: 91%
inhibition [21]: 92%
inhibition [22]: 94%
inhibition [23]: 88%
inhibition [24]: 53%
inhibition [25]: 82%
inhibition [26]: 87%
inhibition [27]: 73%
IC50 [28]: 36 nM
IC50 [29]: 36 nM
IC50 [30]: 57 nM
IC50 [31]: 41 nM
IC50 [32]: 41 nM
IC50 [33]: 99 nM
IC50 [34]: 82 nM
IC50 [35]: 54 nM
IC50 [36]: 67 nM
inhibition [37]: 82%
inhibition [38]: 85%
SMILES: Cc1cc2cn[nH]c2cc1-c1cccc2c(N)c(C(N)=O)nnc12
Activity [9]: Dose-dependent effect
Activity [10]: Dose-dependent effect

EC50 [39]: > 50000 nM
IC50 [1]: 13000 nM
hepatic extraction ratio at 0.5 h, 1 µM [40]: 0.77
hepatic extraction ratio at 0.5 h, 1 µM [41]: 0.5
Papp A→B [42]: 28.8 ×10⁻⁶ cm/s
Ratio [43]: 0.7
clearance [2]: 22 mL/min/kg
hepatic extraction ratio [44]: 0.3
Vd [3]: 0.7 L/kg
half-life [4]: 1.3 h
bioavailability [5]: 35%
IC50 [45]: 240000 nM
SMILES: Cn1cc(-c2cccc3c(N)c(C(N)=O)nnc23)cn1

IC50 [1]: 6400 nM
SMILES: NC(=O)c1nnc2c(-c3ccc4cc[nH]c4c3)cccc2c1N

IC50 [1]: 38000 nM
IC50 [45]: 3500 nM
SMILES: NC(=O)c1nnc2ccccc2c1N
